According to PMC8240349 (Journal of Traditional and Complementary Medicine, 2021):
Where two headings read alike, the source gives them in different places. Marks after values point to notes of the source that are not given here.

Assays:
[1] = type: in vivo, human; details: for AUC0-∞ / CL/F / Cmax / K01 / Vz/F / k10 / t1/2a / t1/2z / tlag / tmax / K10: median (range)
[2] = cited from earlier work
[3] = rats, cited from earlier work
[4] = group 1, single 1,000 mg AL, all
[5] = group 1, single 1,000 mg AL, female
[6] = group 1, single 1,000 mg AL, male
[7] = group 2, daily 1,000 mg AL, day 1, all
[8] = group 2, daily 1,000 mg AL, day 1, female
[9] = group 2, daily 1,000 mg AL, day 1, male
[10] = group 2, daily 1,000 mg AL, day 21, all
[11] = group 2, daily 1,000 mg AL, day 21, female
[12] = group 2, daily 1,000 mg AL, day 21, male
[13] = intravenous 2 mg/kg body weight atractylodin
[14] = oral 30 g/kg body weight A. rhizoma

**Q.** For `C/C=C/C#CC#C/C=C/c1ccco1` [atractylodin], which “AUC0-∞” value [1, 4] is on record?
**A.** The value was 105.07 (65.93–168.90) ng.h/ml.

**Q.** What about the CL/F [1, 4] of the same compound?
**A.** Its CL/F is 7.28 (4.78–15.62) l/kg/h.

**Q.** What about the Cmax [1, 4] of the same compound?
**A.** Its Cmax is 29.1 (17.1–42.51) ng/ml.

**Q.** What about the K01 [1, 4] of the same compound?
**A.** The K01 was 0.68 (0.43–1.00) /h.

**Q.** What about the Vz/F [1, 4] of the same compound?
**A.** The Vz/F was 10.18 (6.85–19.53) L/kg.

**Q.** And the k10 [1, 4]?
**A.** The k10 was 0.71 (0.44–1.71) /h.

**Q.** What about the t1/2a [1, 4] of the same compound?
**A.** Its t1/2a is 0.97 (0.41–1.58) h.

**Q.** And the t1/2z [1, 4]?
**A.** Its t1/2z is 0.88 (0.37–1.74) h.

**Q.** And the tlag [1, 4]?
**A.** Its tlag is 0.13 (0.0–0.5) h.

**Q.** And the tmax [1, 4]?
**A.** The tmax was 1.41 (0.94–2.3) h.

**Q.** And the “AUC0-∞” value [1, 5]?
**A.** Its value is 108.19 (65.93–186.59) ng.h/ml.

**Q.** And the CL/F [1, 5]?
**A.** The CL/F was 8.06 (4.80–15.62) l/kg/h.

**Q.** And the Cmax [1, 5]?
**A.** The Cmax was 31.04 (19.29–49.21) ng/ml.

**Q.** What about the K01 [1, 5] of the same compound?
**A.** Its K01 is 0.75 (0.59–1.48) /h.

**Q.** And the K10 [1, 5]?
**A.** The K10 was 0.76 (0.59–1.16) /h.

**Q.** What about the Vz/F [1, 5] of the same compound?
**A.** The Vz/F was 11.81 (5.65–19.53) l/kg.

**Q.** What about the t1/2a [1, 5] of the same compound?
**A.** Its t1/2a is 0.92 (0.47–1.19) h.

**Q.** And the t1/2z [1, 5]?
**A.** The t1/2z was 0.92 (0.47–1.19) h.

**Q.** What about the tlag [1, 5] of the same compound?
**A.** Its tlag is 0.0 (0.0–0.25) h.

**Q.** And the tmax [1, 5]?
**A.** Its tmax is 1.33 (0.89–1.70) h.

**Q.** What about the “AUC0-∞” value [1, 6] of the same compound?
**A.** Its value is 118.85 (74.25–189.98) ng.h/ml.

**Q.** What about the CL/F [1, 6] of the same compound?
**A.** Its CL/F is 6.35 (3.34–10.33) l/kg/h.

**Q.** What about the Cmax [1, 6] of the same compound?
**A.** The Cmax was 31.05 (17.86–51.36) ng/ml.

**Q.** And the K01 [1, 6]?
**A.** Its K01 is 0.68 (0.44–0.95) /h.

**Q.** And the K10 [1, 6]?
**A.** The K10 was 0.67 (0.43–0.96) /h.

**Q.** What about the Vz/F [1, 6] of the same compound?
**A.** The Vz/F was 8.41 (5.14–18.70) l/kg.

**Q.** What about the t1/2a [1, 6] of the same compound?
**A.** The t1/2a was 1.02 (0.73–1.58) h.

**Q.** What about the t1/2z [1, 6] of the same compound?
**A.** Its t1/2z is 1.02 (0.73–1.57) h.

**Q.** What about the tlag [1, 6] of the same compound?
**A.** Its tlag is 0.25 (0–0.5) h.

**Q.** And the tmax [1, 6]?
**A.** Its tmax is 1.48 (1.05–2.29) h.

**Q.** What about the “AUC0-∞” value [1, 7] of the same compound?
**A.** Its value is 103.7 (16.5–315.4) ng.h/ml.

**Q.** What about the CL/F [1, 7] of the same compound?
**A.** Its CL/F is 8.11 (2.73–40.75) l/kg/h.

**Q.** What about the Cmax [1, 7] of the same compound?
**A.** Its Cmax is 32.11 (4.9–117.8) ng/ml.

**Q.** And the K01 [1, 7]?
**A.** The K01 was 0.83 (0.43–22.67) /h.

**Q.** What about the Vz/F [1, 7] of the same compound?
**A.** Its Vz/F is 12.74 (2.687–47.03) L/kg.

**Q.** What about the k10 [1, 7] of the same compound?
**A.** The k10 was 0.71 (0.43–1.25) /h.

**Q.** What about the t1/2a [1, 7] of the same compound?
**A.** Its t1/2a is 0.84 (0.03–1.63) h.

**Q.** And the t1/2z [1, 7]?
**A.** Its t1/2z is 0.84 (0.03–1.63) h.

**Q.** And the tlag [1, 7]?
**A.** Its tlag is 0 (0–0.5) h.

**Q.** What about the tmax [1, 7] of the same compound?
**A.** The tmax was 1.18 (0.17–2.34) h.

**Q.** And the “AUC0-∞” value [1, 8]?
**A.** Its value is 130.62 (52.04–315.40) ng.h/ml.

**Q.** And the CL/F [1, 8]?
**A.** The CL/F was 6.50 (2.73–14.76) l/kg/h.

**Q.** What about the Cmax [1, 8] of the same compound?
**A.** Its Cmax is 42.26 (8.41–117.80) ng/ml.

**Q.** What about the K01 [1, 8] of the same compound?
**A.** Its K01 is 0.96 (0.43–22.67) /h.

**Q.** What about the K10 [1, 8] of the same compound?
**A.** The K10 was 0.63 (0.43–1.19) /h.

**Q.** What about the Vz/F [1, 8] of the same compound?
**A.** The Vz/F was 10.09 (2.68–33.56) l/kg.

**Q.** What about the t1/2a [1, 8] of the same compound?
**A.** Its t1/2a is 0.73 (0.03–1.63) h.

**Q.** And the t1/2z [1, 8]?
**A.** The t1/2z was 0.73 (0.03–1.63) h.

**Q.** And the tmax [1, 8]?
**A.** The tmax was 1.11 (0.17–2.34) h.

**Q.** What about the “AUC0-∞” value [1, 9] of the same compound?
**A.** The value was 91.88 (16.5–109.93) ^b ng.h/ml.

**Q.** What about the CL/F [1, 9] of the same compound?
**A.** The CL/F was 8.75 (5.8–40.75) l/kg/h.

**Q.** And the Cmax [1, 9]?
**A.** Its Cmax is 23.77 (4.97–49.75) ^a ng/ml.

**Q.** What about the K01 [1, 9] of the same compound?
**A.** Its K01 is 0.78 (0.57–1.89) /h.

**Q.** What about the K10 [1, 9] of the same compound?
**A.** The K10 was 0.72 (0.24–1.25) /h.

**Q.** What about the Vz/F [1, 9] of the same compound?
**A.** Its Vz/F is 15.52 (6.43–47.03) l/kg.

**Q.** What about the t1/2a [1, 9] of the same compound?
**A.** Its t1/2a is 0.89 (0.37–1.21) h.

**Q.** What about the t1/2z [1, 9] of the same compound?
**A.** Its t1/2z is 0.89 (0.37–1.21) h.

**Q.** What about the tlag [1, 9] of the same compound?
**A.** The tlag was 0.0 (0.0–0.5) h.

**Q.** And the tmax [1, 9]?
**A.** The tmax was 1.25 (0.81–1.73) h.

**Q.** What about the “AUC0-∞” value [1, 10] of the same compound?
**A.** Its value is 123.18 (49.22–419.61) ng.h/ml.

**Q.** What about the CL/F [1, 10] of the same compound?
**A.** The CL/F was 7.10 (1.83–14.67) l/kg/h.

**Q.** And the Cmax [1, 10]?
**A.** Its Cmax is 31.84 (9.38–97.64) ng/ml.

**Q.** And the K01 [1, 10]?
**A.** Its K01 is 0.74 (0.10–1.92) /h.

**Q.** What about the Vz/F [1, 10] of the same compound?
**A.** Its Vz/F is 9.66 (0.47–26.32) L/kg.

**Q.** And the k10 [1, 10]?
**A.** The k10 was 0.73 (0.11–15.31) /h.

**Q.** What about the t1/2a [1, 10] of the same compound?
**A.** Its t1/2a is 0.94 (0.36–6.61) h.

**Q.** What about the t1/2z [1, 10] of the same compound?
**A.** Its t1/2z is 0.94 (0.05–6.49) h.

**Q.** And the tlag [1, 10]?
**A.** The tlag was 0 (0–0.5) h.

**Q.** And the tmax [1, 10]?
**A.** The tmax was 1.32 (0.24–9.44) h.

**Q.** And the “AUC0-∞” value [1, 11]?
**A.** Its value is 144.4 (69.1–420.3) ng.h/ml.

**Q.** What about the CL/F [1, 11] of the same compound?
**A.** Its CL/F is 5.91 (1.83–11.11) l/kg/h.

**Q.** What about the Cmax [1, 11] of the same compound?
**A.** Its Cmax is 39.49 (11.40–91.24) ng/ml.

**Q.** And the K01 [1, 11]?
**A.** Its K01 is 0.72 (0.11–1.92) /h.

**Q.** And the K10 [1, 11]?
**A.** The K10 was 0.74 (0.11–15.31) /h.

**Q.** What about the Vz/F [1, 11] of the same compound?
**A.** Its Vz/F is 8.18 (0.47–25.06) l/kg.

**Q.** What about the t1/2a [1, 11] of the same compound?
**A.** The t1/2a was 0.97 (0.36–6.61) h.

**Q.** What about the t1/2z [1, 11] of the same compound?
**A.** Its t1/2z is 0.94 (0.05–6.49) h.

**Q.** What about the tlag [1, 11] of the same compound?
**A.** The tlag was 0 (0–0.5) h.

**Q.** What about the tmax [1, 11] of the same compound?
**A.** Its tmax is 1.36 (0.24–9.45) h.

**Q.** And the “AUC0-∞” value [1, 12]?
**A.** Its value is 87.18 (49.22–292.77) ^c ng.h/ml.

**Q.** And the CL/F [1, 12]?
**A.** The CL/F was 8.16 (2.70–14.67) ^d l/kg/h.

**Q.** What about the Cmax [1, 12] of the same compound?
**A.** The Cmax was 26.03 (9.39–97.64) ng/ml.

**Q.** And the K01 [1, 12]?
**A.** The K01 was 0.83 (0.52–1.57) /h.

**Q.** What about the K10 [1, 12] of the same compound?
**A.** The K10 was 0.71 (0.42–0.99) /h.

**Q.** And the Vz/F [1, 12]?
**A.** Its Vz/F is 13.32 (3.05–26.32) l/kg.

**Q.** And the t1/2a [1, 12]?
**A.** Its t1/2a is 0.84 (0.44–1.34) h.

**Q.** What about the t1/2z [1, 12] of the same compound?
**A.** Its t1/2z is 0.99 (0.70–1.67) h.

**Q.** What about the tlag [1, 12] of the same compound?
**A.** The tlag was 0 (0.0–0.0) h.

**Q.** What about the tmax [1, 12] of the same compound?
**A.** Its tmax is 1.24 (1.0–1.94) h.

**Q.** What about the “Cmax by model-dependent analysis compared with model-independent analysis” value ([1]; in vivo) of the same compound?
**A.** Its value is 60–70%.

**Q.** What about the water solubility [2] of the same compound?
**A.** The water solubility was “low water solubility”.

**Q.** And the “central volume of distribution (Vc)” value [3, 13]?
**A.** Its value is 31.7 L/kg.

**Q.** What about the t1/2 [3, 13] of the same compound?
**A.** The t1/2 was 3.3 h.

**Q.** What about the “total clearance (CL)” value [3, 13] of the same compound?
**A.** Its value is 6.59 L/h/kg.

**Q.** And the “mean maximum plasma concentration (Cmax)” value [3, 14]?
**A.** The value was 1,930 ng/ml.

**Q.** What about the “terminal elimination half-life (t1/2)” value [3, 14] of the same compound?
**A.** Its value is 8 h.

**Q.** And the “time to Cmax (tmax)” value [3, 14]?
**A.** The value was 2.25 h.
